Measured values from patent US5118678A, “Carbamates of rapamycin” (American Home Products Corporation, priority 1991, dated 1992).
Like-named read-outs stand apart in the source and are kept apart here.

Experiments:
[1] = tested on: cells from the thymus of normal BALB/c mice (lymphocyte proliferation); test: comitogen-induced thymocyte proliferation procedure (LAF); type: cell-based; conditions: Mus musculus; for IC50: read-out: LAF IC50
Description: (§1) Immunosuppressive activity was evaluated in an in vitro standard pharmacological test procedure to measure lymphocyte proliferation (LAF) and in two in vivo standard pharmacological test procedures. The first in vivo procedure was a popliteal lymph node (PLN) test procedure which measured the effect of compounds of this invention on a mixed lymphocyte reaction and the second in vivo procedure evaluated the survival time of a pinch skin graft.
Briefly, cells from the thymus of normal BALB/c mice are cultured for 72 hours with PHA and IL-1 and pulsed with tritiated thymidine during the last six hours. […] Cells are harvested and incorporated radioactivity is determined. Inhibition of lymphoproliferation is assessed as percent change in counts per minute from non-drug treated controls. The results are expressed as an IC50. [formula]

[2] = tested on: popliteal lymph node, mixed lymphocyte reaction; test: popliteal lymph node (PLN) test procedure (in vivo mixed lymphocyte reaction); set-up: species or system C3H mice (recipients), BALB/c donors; conditions: for PLN (ratio): p.o. daily Day 0 to Day 4, rapamycin = 1.00
Description: as §1
A mixed lymphocyte reaction (MLR) occurs when lymphoid cells from genetically distinct animals are combined in tissue culture. Each stimulates the other to undergo blast transformation which results in increased DNA synthesis that can be quantified by the incorporation of tritiated thymidine. Since stimulating a MLR is a function of disparity at Major Histocompatibility antigens, an in vivo popliteal lymph node (PLN) test procedure closely correlates to host vs. graft disease. Briefly, irradiated spleen cells from BALB/c donors are injected into the right hind foot pad of recipient C3H mice. The drug is given daily, p.o. from Day 0 to Day 4. On Day 3 and Day 4, tritiated thymidine is given i.p., b.i.d. On Day 5, the hind popliteal lymph nodes are removed and dissolved, and radioactivity counted. The corresponding left PLN serves as the control for the PLN from the injected hind foot. Percent suppression is calculated using the non-drug treated animals as allogenic control. […] Results are expressed by the following ratio: [formula]

[3] = tested on: IgE-like antibodies; conditions: R. Martel et al. 1977; cited from earlier work
[4] = tested on: experimental allergic encephalomyelitis model, a model for multiple sclerosis; conditions: R. Martel et al. 1977; cited from earlier work
[5] = FASEB 1989; Lancet 1978; cited from earlier work
[6] = tested on: pinch skin graft from male DBA/2 donors transplanted to male BALB/c recipients; test: survival time of pinch skin graft; type: in vivo, DBA/2 donors (mice); conditions: intraperitoneally; mean ± S.D.; untreated grafts typically rejected within 6-7 days
Description: as §1
The second in vivo test procedure is designed to determine the survival time of pinch skin graft from male DBA/2 donors transplanted to male BALB/c recipients. The method is adapted from Billingham R. E. and Medawar P. B., J. Exp. Biol. 28:385-402, (1951). Briefly, a pinch skin graft from the donor is grafted on the dorsum of the recipient as a homograft, and an autograft is used as control in the same region. […] Untreated recipients serve as rejection control. The graft is monitored daily and observations are recorded until the graft becomes dry and forms a blackened scab. This is considered as the rejection day. The mean graft survival time (number of days ±S.D.) of the drug treatment group is compared with the control group.

[7] = thymocytes cultured 72 h with PHA and IL-1, tritiated thymidine incorporation, vs non-drug treated controls

SMILES: CO[C@H]1C[C@@H]2CC[C@@H](C)[C@@](O)(O2)C(=O)C(=O)N2CCCC[C@H]2C(=O)O[C@H]([C@H](C)C[C@@H]2CC[C@@H](OC(=O)Nc3ccccc3)[C@H](OC)C2)CC(=O)[C@H](C)/C=C(\C)[C@@H](OC(=O)Nc2ccccc2)[C@@H](OC)C(=O)[C@H](C)C[C@H](C)/C=C/C=C/C=C/1C [Example 11, Rapamycin-31,42-diester with phenylcarbamic acid]
- IC50 [1, 7]: > 1000 nM

SMILES: CO[C@H]1C[C@@H]2CC[C@@H](C)[C@@](O)(O2)C(=O)C(=O)N2CCCC[C@H]2C(=O)O[C@H]([C@H](C)C[C@@H]2CC[C@@H](O)[C@H](OC)C2)CC(=O)[C@H](C)/C=C(\C)[C@@H](O)[C@@H](OC)C(=O)[C@H](C)C[C@H](C)/C=C/C=C/C=C/1C [Rapamycin]
- percent suppression (PLN) ([2]; 6 mg/kg, p.o., vs non-drug treated animals as allogenic control): 86%
- PLN (ratio) [2]: 1.00 ratio
- IC50 ([1]; 72 h): 3.2 to 9.4 nM
- inhibition of formation of IgE-like antibodies [3]: effectively inhibited the formation of IgE-like antibodies
- effect in experimental allergic encephalomyelitis model [4]: effective in the experimental allergic encephalomyelitis model
- immunosuppressive effects [5]: immunosuppressive effects
- Skin Graft (mean graft survival time, days + SD) [6]: 12.0 ± 1.7 days

SMILES: CO[C@H]1C[C@@H]2CC[C@@H](C)[C@@](O)(O2)C(=O)C(=O)N2CCCC[C@H]2C(=O)O[C@H]([C@H](C)C[C@@H]2CC[C@@H](OC(=O)Nc3ccc(F)cc3F)[C@H](OC)C2)CC(=O)[C@H](C)/C=C(\C)[C@@H](OC(=O)Nc2ccc(F)cc2F)[C@@H](OC)C(=O)[C@H](C)C[C@H](C)/C=C/C=C/C=C/1C [Example 10, Rapamycin-31,42-diester with (2,4-difluorophenyl)carbamic acid]
- IC50 [1, 7]: > 1000 nM

SMILES: CO[C@H]1C[C@@H]2CC[C@@H](C)[C@@](O)(O2)C(=O)C(=O)N2CCCC[C@H]2C(=O)O[C@H]([C@H](C)C[C@@H]2CC[C@@H](OC(=O)Nc3ccc(F)cc3)[C@H](OC)C2)CC(=O)[C@H](C)/C=C(\C)[C@@H](O)[C@@H](OC)C(=O)[C@H](C)C[C@H](C)/C=C/C=C/C=C/1C [Example 1, Rapamycin 42-ester with (4-fluorophenyl)carbamic acid]
- PLN (ratio) [2]: 0.71 ratio
- IC50 [1, 7]: 8.6 nM
- Skin Graft (mean graft survival time, days + SD) [6]: 8.5 ± 1.6 days

SMILES: CO[C@H]1C[C@@H]2CC[C@@H](C)[C@@](O)(O2)C(=O)C(=O)N2CCCC[C@H]2C(=O)O[C@H]([C@H](C)C[C@@H]2CC[C@@H](OC(=O)Nc3ccc(C)cc3)[C@H](OC)C2)CC(=O)[C@H](C)/C=C(\C)[C@@H](O)[C@@H](OC)C(=O)[C@H](C)C[C@H](C)/C=C/C=C/C=C/1C [Example 8, Rapamycin-42-ester with (4-methylphenyl)carbamic acid]
- IC50 [1, 7]: 7.4 nM
- Skin Graft (mean graft survival time, days + SD) [6]: 8.8 ± 1.3 days

SMILES: CO[C@H]1C[C@@H]2CC[C@@H](C)[C@@](O)(O2)C(=O)C(=O)N2CCCC[C@H]2C(=O)O[C@H]([C@H](C)C[C@@H]2CC[C@@H](OC(=O)Nc3ccc(F)cc3F)[C@H](OC)C2)CC(=O)[C@H](C)/C=C(\C)[C@@H](O)[C@@H](OC)C(=O)[C@H](C)C[C@H](C)/C=C/C=C/C=C/1C [Example 9, Rapamycin-42-ester with (2,4-difluorophenyl)carbamic acid]
- PLN (ratio) [2]: 0.72 ratio
- IC50 [1, 7]: 8.7 nM
- Skin Graft (mean graft survival time, days + SD) [6]: 8.0 ± 1.7 days

SMILES: C=CC[C@@H]1/C=C(\C)C[C@H](C)C[C@H](OC)[C@H]2O[C@@](O)(C(=O)C(=O)N3CCCC[C@H]3C(=O)O[C@H](/C(C)=C/[C@@H]3CC[C@@H](O)[C@H](OC)C3)[C@H](C)[C@@H](O)CC1=O)[C@H](C)C[C@@H]2OC [FK-506]
- immunosuppressive effects [5]: effective as immunosuppressive agents

SMILES: CO[C@H]1C[C@@H]2CC[C@@H](C)[C@@](O)(O2)C(=O)C(=O)N2CCCC[C@H]2C(=O)O[C@H]([C@H](C)C[C@@H]2CC[C@@H](OC(=O)Nc3ccc([N+](=O)[O-])cc3)[C@H](OC)C2)CC(=O)[C@H](C)/C=C(\C)[C@@H](OC(=O)Nc2ccc([N+](=O)[O-])cc2)[C@@H](OC)C(=O)[C@H](C)C[C@H](C)/C=C/C=C/C=C/1C [Example 5, Rapamycin-31,42-diester with (4-nitrophenyl)carbamic acid]
- inhibition at 0.1 µM ([1]; read-out: LAF percent inhibition): 3%

SMILES: CO[C@H]1C[C@@H]2CC[C@@H](C)[C@@](O)(O2)C(=O)C(=O)N2CCCC[C@H]2C(=O)O[C@H]([C@H](C)C[C@@H]2CC[C@@H](OC(=O)Nc3ccc(C(F)(F)F)cc3)[C@H](OC)C2)CC(=O)[C@H](C)/C=C(\C)[C@@H](OC(=O)Nc2ccc(C(F)(F)F)cc2)[C@@H](OC)C(=O)[C@H](C)C[C@H](C)/C=C/C=C/C=C/1C [Example 3, Rapamycin-31,42-diester with [4-(trifluoromethyl)phenyl]carbamic acid]
- IC50 [1, 7]: > 1000 nM

SMILES: CO[C@H]1C[C@@H]2CC[C@@H](C)[C@@](O)(O2)C(=O)C(=O)N2CCCC[C@H]2C(=O)O[C@H]([C@H](C)C[C@@H]2CC[C@@H](O)[C@H](OC)C2)CC(=O)[C@H](C)/C=C(\C)[C@@H](OC(=O)Nc2ccc(F)cc2F)[C@@H](OC)C(=O)[C@H](C)C[C@H](C)/C=C/C=C/C=C/1C [Example 15, Rapamycin-31-ester with (2,4-difluorophenyl)carbamic acid]
- IC50 [1, 7]: > 1000 nM

SMILES: CO[C@H]1C[C@@H]2CC[C@@H](C)[C@@](O)(O2)C(=O)C(=O)N2CCCC[C@H]2C(=O)O[C@H]([C@H](C)C[C@@H]2CC[C@@H](OC(=O)Nc3ccc(C(F)(F)F)cc3)[C@H](OC)C2)CC(=O)[C@H](C)/C=C(\C)[C@@H](O)[C@@H](OC)C(=O)[C@H](C)C[C@H](C)/C=C/C=C/C=C/1C [Example 4, Rapamycin-42-ester with [4-(trifluoromethyl)phenyl]carbamic acid]
- PLN (ratio) [2]: 0.90 ratio
- IC50 [1, 7]: 57.9 nM

SMILES: CO[C@H]1C[C@@H]2CC[C@@H](C)[C@@](O)(O2)C(=O)C(=O)N2CCCC[C@H]2C(=O)O[C@H]([C@H](C)C[C@@H]2CC[C@@H](OC(=O)Nc3ccccc3)[C@H](OC)C2)CC(=O)[C@H](C)/C=C(\C)[C@@H](O)[C@@H](OC)C(=O)[C@H](C)C[C@H](C)/C=C/C=C/C=C/1C [Example 2, Rapamycin 42-ester with phenylcarbamic acid]
- PLN (ratio) [2]: 0.47 ratio
- IC50 [1, 7]: 3.9 nM
- Skin Graft (mean graft survival time, days + SD) [6]: 8.5 ± 1.2 days

SMILES: CO[C@H]1C[C@@H]2CC[C@@H](C)[C@@](O)(O2)C(=O)C(=O)N2CCCC[C@H]2C(=O)O[C@H]([C@H](C)C[C@@H]2CC[C@@H](OC(=O)Nc3ccc(F)cc3)[C@H](OC)C2)CC(=O)[C@H](C)/C=C(\C)[C@@H](OC(=O)Nc2ccc(F)cc2)[C@@H](OC)C(=O)[C@H](C)C[C@H](C)/C=C/C=C/C=C/1C [Example 12, Rapamycin-31,42-diester with (4-fluorophenyl)carbamic acid]
- IC50 [1, 7]: > 1000 nM

SMILES: CO[C@H]1C[C@@H]2CC[C@@H](C)[C@@](O)(O2)C(=O)C(=O)N2CCCC[C@H]2C(=O)O[C@H]([C@H](C)C[C@@H]2CC[C@@H](OC(=O)Nc3ccc([N+](=O)[O-])cc3)[C@H](OC)C2)CC(=O)[C@H](C)/C=C(\C)[C@@H](O)[C@@H](OC)C(=O)[C@H](C)C[C@H](C)/C=C/C=C/C=C/1C [Example 6, Rapamycin-42-ester with (4-nitrophenyl)carbamic acid]
- PLN (ratio) [2]: 0.25 ratio
- IC50 [1, 7]: 10.4 nM
- Skin Graft (mean graft survival time, days + SD) [6]: 8.3 ± 1.0 days

SMILES: CO[C@H]1C[C@@H]2CC[C@@H](C)[C@@](O)(O2)C(=O)C(=O)N2CCCC[C@H]2C(=O)O[C@H]([C@H](C)C[C@@H]2CC[C@@H](O[Si](C)(C)C(C)(C)C)[C@H](OC)C2)CC(=O)[C@H](C)/C=C(\C)[C@@H](OC(=O)Nc2ccc(F)cc2F)[C@@H](OC)C(=O)[C@H](C)C[C@H](C)/C=C/C=C/C=C/1C [Example 14, Rapamycin-42-tert-butyldimethylsilyl ether-31-ester with (2,4-difluorophenyl)carbamic acid]
- IC50 ([1]; 72 h): > 1000 nM
